Test results published in publication PMC3927586, “Protein kinase C-delta inactivation inhibits the proliferation and survival of cancer stem cells in culture and in vivo” (BMC Cancer, 2014).

Legend:
[1] = Drug-like properties: hydrophobicity; format: physicochemical
[2] = system: cells with aberrant Ras signaling; parameters: method as in PMID 24506253; details: cited from earlier work
PrCSC cells [3] = experiment: Cell proliferation (MTT) of prostate cancer stem cells; format: cell-based, human; details: as early as 24 hr after exposure
Protocol: Cell proliferation was assessed using an MTT [3-(4,5-dimethylthiazol-2-yl)-2,5-diphenyltetrazolium bromide] assay (Roche, Mannheim, Germany). The number of viable cells growing in a single well on a 96-well microtiter plate was estimated by adding 10 μl of MTT solution (5 mg/ml in phosphate-buffered saline [PBS]). After 4 h of incubation at 37°C, the stain was diluted with 100 μl of dimethyl sulfoxide. The optical densities were quantified at a test wavelength of 570 nm and a reference wavelength of 690 nm on a multiwell spectrophotometer. In some assays, MTS was used as substrate (Promega, Madison, WI), and the absorbance of the product was monitored at 490 nm. Cell enumeration was carried out using a hemocytometer, and viable cells identified by trypan blue exclusion.
Figure 2 Effects of PKCδ inhibitors on human cancer stem cells. (A) PCSC and PrCSC cells at 80% confluence were exposed to rottlerin. DMSO served as vehicle control (Vehicle). After 24 and 72 hr of exposure, cell mass was evaluated by MTT assay. […] Cytotoxicity was evaluated by LDH-release assay. […] Viable cells were enumerated and re-plated in media without inhibitor, and colony numbers were quantitated 15 days later. p values for comparison of treatment effects on clonogenic capacity reached significance (p=0.005) at 18 hr of exposure and remained significant for all subsequent exposure times. […]

PrCSC cells [4] = experiment: Cytotoxicity (LDH release) in prostate cancer stem cells; format: cell-based, human; details: dose-dependent, 24 and 72 hr
Protocol: LDH release was assessed by spectrophotometrically measuring the oxidation of NADH in both the cells and media. Cells were seeded in 24-well plates, and exposed to PKCδ inhibitors or vehicle. After different times of exposure, cytotoxicity was quantified by a standard measurement of LDH release with the use of the LDH assay kit (Roche Molecular Biochemicals) according to the manufacturer’s protocol. Briefly, total culture medium was cleared by centrifugation. For assay of released LDH, supernatants were collected. To assess total LDH in cells, Triton X-100 was added to vehicle (control) wells to release intracellular LDH. LDH assay reagent was added to lysates or supernatants and incubated for up to 30 min at room temperature in dark, the reaction was stopped, and the absorbance was measured at 490 nm. The percentage of LDH release was then calculated as the LDH in the supernatants as a fraction of the total LDH.
Figure 2 Effects of PKCδ inhibitors on human cancer stem cells. (A) PCSC and PrCSC cells at 80% confluence were exposed to rottlerin. DMSO served as vehicle control (Vehicle). After 24 and 72 hr of exposure, cell mass was evaluated by MTT assay. Control values were normalized to 100%. p values for comparison between treatments reached significance at 24 hr of exposure (p≤0.01) for both cell types, and remained significant at 72 hr. (B) PCSC and PrCSC cells at 50% confluence were exposed to rottlerin. Cytotoxicity was evaluated by LDH-release assay. […] Viable cells were enumerated and re-plated in media without inhibitor, and colony numbers were quantitated 15 days later. p values for comparison of treatment effects on clonogenic capacity reached significance (p=0.005) at 18 hr of exposure and remained significant for all subsequent exposure times. […] Cytotoxicity was evaluated by LDH-release assay, as in panel B. p values for comparison between treatment effects on LDH release reached significance at 24 hr of exposure to 2.5 μM KAM1 for PCSC cells and at 10 μM for PrCSC (p≤0.01), and remained significant at 72 hr for all concentrations of KAM1. […]

PCSC = experiment: Clonogenic assay with washout; format: cell-based, human; details: rottlerin 10 μM, colonies at 15 days
Protocol: 100,000 cells were seeded on 100 mm dishes with 10 ml media per dish. On day 4, cells were treated with a PKCδ inhibitor or vehicle control for either 6, 18, 24 or 48 hours. Cells were trypsinized; counted via the trypan blue exclusion method in order to determine the number of live cells in the sample, and 300 live cells were seeded in triplicate onto 6-well plates. Cells were monitored for appropriate colony size and re-fed every three to four days. At Day 15, cells were stained with ethidium bromide and counted using UVP LabWorks software (Waltham, MA).
Figure 2 Effects of PKCδ inhibitors on human cancer stem cells. (A) PCSC and PrCSC cells at 80% confluence were exposed to rottlerin. DMSO served as vehicle control (Vehicle). After 24 and 72 hr of exposure, cell mass was evaluated by MTT assay. Control values were normalized to 100%. p values for comparison between treatments reached significance at 24 hr of exposure (p≤0.01) for both cell types, and remained significant at 72 hr. […] Cytotoxicity was evaluated by LDH-release assay. […] Viable cells were enumerated and re-plated in media without inhibitor, and colony numbers were quantitated 15 days later. p values for comparison of treatment effects on clonogenic capacity reached significance (p=0.005) at 18 hr of exposure and remained significant for all subsequent exposure times. […]

[5] = system: human breast cancer stem cell (BCSC) xenografts; experiment: Breast cancer stem cell xenograft model; format: in vivo, mice; details: rottlerin 5,000 μg/kg intraperitoneally, 15 days
Protocol: These studies were performed with the approval of the Institutional Animal Care and Use Committee of Boston University. Breast cancer stem cells (2 × 10^5) grown from a metastatic tumor were suspended in human breast cancer stem cell complete growth media (Celprogen, San Pedro, CA) and injected subcutaneous into the right flank of female J:NU mice (The Jackson Laboratory, ME) under anesthesia. After palpable tumors developed, the mice were divided into two groups of animals. The control group received daily intraperitoneal injections of vehicle (DMSO) while the treatment group received daily intraperitoneal injections of a PKCδ inhibitor (rottlerin 5,000 μg/kg) for 15 days. The length and width of tumors were measured with a vernier caliper and tumor volumes were calculated. Survival was calculated as the day tumors reached the maximum size allowed by the protocol (2 cm diameter).
Figure 6 Effects of PKCδ inhibitor on tumor growth and survival in a xenograft human breast cancer stem cell model. Breast cancer stem cell xenografts were established and animals were treated with vehicle or rottlerin for 15 days, as described in Methods. (A) Tumor volumes plotted over time, until tumors in all the control animals reached the maximum volume allowed by the protocol (approximately 15 days). […]

[6] = mice; cited from earlier work
[7] = system: normal primary cells or cell lines; details: at the concentrations employed herein; cited from earlier work

SMILES | hydrophobicity [1] | concentrations producing cytotoxic activity against cells with aberrant Ras signaling [2] | effect on proliferation of PrCSC (PrCSC cells [3]) | cytotoxicity in PrCSC (LDH release) (PrCSC cells [4]) | decrease of clonogenic capacity of PCSC (PCSC; 18 hr exposure then washout) | reduction of clonogenic potential of PCSC (PCSC; 48 hr exposure then washout) | survival / tumor-free status after treatment ([5]; monitoring continued after cessation) | effect on growth of BCSC xenografts ([5]; nude (J:NU) mice, vs vehicle) | tolerability when administered orally or intraperitoneally [6] | cytostatic or cytotoxic effect on normal primary cells or cell lines [7]
CC1(C)C=Cc2cc(CCn3c4ccccc4c4ccccc43)cc(C=O)c2O1 [BJE6-106, 6-(2-(9H-carbazol-9-yl)ethyl)-2,2-dimethyl-2H-chromene-8-carbaldehyde] | highly hydrophobic | nM concentrations | – | – | – | – | – | – | – | –
CC(=O)c1c(O)c(C)c(O)c(Cc2c(O)c3c(c(C(=O)/C=C/c4ccccc4)c2O)OC(C)(C)C=C3)c1O [rottlerin, Rottlerin, reference compound] | – | – | significant dose-dependent inhibition of proliferation | induced cytotoxicity | 40% | more than 90% | some animals remaining tumor-free even at day 300 | effectively inhibited the growth of the xenografts, even producing tumor regression | well-tolerated | not cytostatic or cytotoxic
